Here are results for four substances from patent US20120004281A1, “RNA Interference Mediated Inhibition of the Nerve Growth Factor Beta Chain (NGFB) Gene Expression Using Short Interfering Nucleic Acid (siNA)” (Merck Sharp & Dohme Corp, priority 2009, published 2012).

For one data set, the system named is NGFβ protein. Put plainly: NGFβ ELISA (protein knock-down in Calu-1 cells). The class given is cell-based, human. Particulars: for Max % Protein Reduction at 3 nM: 3 nM siNA, relative to negative universal control siNA (UC3); for IC50: 200 fM to 3 nM siNA, ELISA. On the procedure:
In a 96-well plate, 5,000 Calu-1cells/well were seeded in 100 uL of complete growth media and incubated overnight at 37° C. with 5% CO2. The cells were transfected with siNAs using RNAiMax (Invitrogen, Cat# 13778-150); final concentration of siNAs is 3e-09, le-09, 3e-10, le-10, 4e-11, le-11, 4e-12, le-12, 5e-13, and 2e-13 M. The amount of RNAiMax in each well is 0.3 uL. The siNAs were incubated for 24 hours. The medium was replaced with 100 uL of fresh complete growth medium. The cells were incubated for 48 hours. 80 uL of the medium from each well was collected into a separate 96-well plate. The samples were frozen immediately at −80° C. until ready the assay was ready to be performed.
ELISA was performed using NGF Emax® ImmunoAssay System (Promega, Cat # G7630) according to the manufaturer's instructions. The samples were diluted 1:2 with the blocking buffer provided in the kit. The samples absorbance was recorded at 450 nm on a SpectraMax plate reader (Molecular Devices) within 30 minutes of stopping the reaction.
Sigmaplot was used to determine IC50 values for each of the tested siRNAs using a sigmoidal dose response calculation. The maximum percentage of protein knock-down was determined by dividing the pg/mL at each treated siNA concentration by the pg/mL of the control treated cells at the same concentration of siNA. This number was then converted to a percentage to give the percent of protein remaining.
Various siNAs were also evaluated for their potential to knock-down NGFβ protein using an ELISA assay. Six siNAs were tested in an NGFβ ELISA assay across a range of concentrations of siNAs (200 fM to 3 nM) and the level of reduction of protein was determined relative to treatment of the cells with identical concentrations of the negative universal control siNA (UC3) (see Table 6).
For orientation: ELISA stands for enzyme-linked immunosorbent assay.

The subject of the next data set is NGFβ mRNA. The data set can be described thus: NGFβ mRNA knock-down in Calu-1 cells (RNAiMax transfection, Taqman RT-PCR). Format: cell-based, human. Particulars: for Primary Screen % KD (10 nM) / IC50 / Maximum % KD in DRC: human CaLu-1 cells; for Primary Screen % KD (10 nM): mean ± S.D. of four experiments; for IC50 / Maximum % KD in DRC: dose response 0.083fM to 30 nM, mean ± S.D.; for % KD in CaLu-1 Cells: human Calu-1 cells, 10 nM siNA, 24 hrs post-transfection, relative to non-targeting control, normalized to GAPDH. The protocol:
Calu-1 (human; ATCC cat# HTB-54): Cells were cultured at 37° C. in the presence of 5% CO2 and grown in McCoy's 5a medium supplemented with fetal bovine serum at a final concentration of 10% and 100 μg/mL of streptomycin and 100 U/mL penicillin.
All transfections were performed using RNAiMax (Invitrogen Cat# 13778-150) as per the manufacturer's instructions.
Cells were plated in all wells of a tissue-culture treated, 96-well plate at a final count of 5,000 cells/well in […], of appropriate culture media. Cells were cultured for 24 hours after plating at 37° C. in the presence of 5% CO2.
After 24 hours, complexes containing siNA and RNAiMax were created as follows: A solution of RNAiMax diluted 33-fold in OPTI-MEM was prepared. In parallel, solutions of the siNAs for testing were prepared to a final concentration of 120 nM in OPTI-MEM. After incubation of RNAiMax/OPTI-MEM solution at room temperature for 5 min, an equal volume of the siRNA solution and the RNAiMax solution were added together for each of the siNAs.
This solution was incubated at room temperature for 20 minutes. After incubation, 20 uL of the solution was added to each of the relevant wells.
The final concentration of siNA in each well was 10 nM and the final volume of RNAiMax in each well was 0.3u1.
The time of incubation with the RNAiMax-siNA complexes was 24 hours, unless otherwise indicated. There was no change in media between the transfection and harvesting of the cells unless otherwise indicated.
Dose response curves were carried out in a similar fashion in 96-well plates, while maintaining a constant amount of RNAiMax in each transfection.
RNA was extracted from a 96-well plate using the TaqMan® Gene Expression Cells-to-CT™ Kit (Cat# 4399002) with a modified protocol. Briefly, a 60 uL (1 plate) or 110 uL (2 plates) of the Lysis Solution with DNase I was dispensed into each well of the Lysis Buffer Plate (twin.tec full skirt plate). The lysis buffer and stop plates were stored at 4° C. until the cells were washed.
The plate was spun at 1100 rpm for 5 minutes. The culture medium was aspirated and discarded from the wells of the culture plate. The lysis was performed automatically using a BioMek FX instrument and method. After the Biomek method was completed, the lysis plate was incubated for 2 min. at room temperature. The lysis plate can be stored for 2 hours at 4° C., or at −20° C. or −80° C. for two months.
Each well of the reverse transcription plate required 10 uL of 2× reverse transcriptase Buffer, luL of 20× reverse transcription enzyme and 2 uL of nuclease-free water. The reverse transcription master mix was prepared by mixing 2× reverse transcription buffer, 20× reverse transcription enzyme mix, and nuclease-free water. 13 uL of the reverse transcription master mix was dispensed into each well of the reverse transcription plate (semi-skirted). A separate reverse transcription plate was prepared for each cell plate. The plate was loaded onto a Biomek NX or Biomek FX Dual-96 and the Biomek method was run. The program is programmed to automatically added 7 uL of lysate from the cell lysis procedure described above into each well of the reverse transcription plate. The plate is sealed and spun on a centrifuge (1000 rpm for 30 seconds) to settle the contents to the bottom of the reverse transcription plate. The plate is placed in a thermocycler at 37° C. for 60 min, 95° C. for 5 min, and 4° C. until the plate is removed from the thermocycler. Upon removal, if not used immediately, the plate was frozen at −20° C.
A series of probes and primers were used to detect the various mRNA transcripts of the genes of NGFβ, BDNF and GAPDH in human cell lines. All the Taqman probes and primers for the experiments here-in described were supplied as pre-validated sets by Applied Biosystems, Inc. (see Table 3). The assays were performed on an ABI 7900 instrument, according to the manufacturer's instructions. […]
(Real-time PCR tracks product formation cycle by cycle.)

[invAb] = inverted abasic unit; m = 2'-O-methyl; r = 2'-OH (RNA); f = 2'-fluoro

As a reminder, the IC50 is the concentration at which inhibition is half-maximal. Higher therefore signals weaker potency. In the case of “25413-DC: siNA duplex, NGFβ target site 153; sense B cuGAGGuGcAuAGcGuAAu TTB (SEQ ID NO: 51), antisense AUUAcGcuAuGcAccucAGUU (SEQ ID NO: 52) (sense CUGAGGUGCAUAGCGUAAUTT; antisense AUUACGCUAUGCACCUCAGUU; sense: DNA at AGT, 2'-fluoro at CU, [invAb] at 5' end, 3' end, backbone not given here; antisense: sugars from the 5' end rrrmfmffmfmfmffffmmmm, backbone not given here)”, in the data set with NGFβ protein, the “Max % Protein Reduction at 3 nM” value was found to be 77% and 0.253 nM corresponded to half-maximal inhibition (IC50). In the data set on NGFβ mRNA, the “Primary Screen % KD (10 nM)” value amounted to 76 ± 6%; the midpoint of inhibition, the IC50, lay at 38 ± 35 pM; the “Maximum % KD in DRC” value is on record as 69 ± 8%; the “% KD in CaLu-1 Cells” value is given as 68%.
Consider “25416-DC: siNA duplex, NGFβ target site 771; sense B GuAccAcGAcucAcAccuu TTB (SEQ ID NO: 57), antisense AAGGuGuGAGucGuGGuAcUU (SEQ ID NO: 58) (sense GUACCACGACUCACACCUUTT; antisense AAGGUGUGAGUCGUGGUACUU; sense: DNA at AGT, 2'-fluoro at CU, [invAb] at 5' end, 3' end, backbone not given here; antisense: sugars from the 5' end rrrmfmfmmmffmfmmfmfmm, backbone not given here)”, for which, in the data set on NGFβ protein, the “Max % Protein Reduction at 3 nM” value stood at 89% and the IC50 was 0.096 nM. Also, in the data set with NGFβ mRNA, the “Primary Screen % KD (10 nM)” value was found to be 80 ± 3%, the IC50 amounted to 35 ± 33 pM, the “Maximum % KD in DRC” value worked out at 61 ± 7% and the “% KD in CaLu-1 Cells” value was 69%.
Regarding “25417-DC: siNA duplex, NGFβ target site 655; sense B GGuGAAcAuuAAcAAcAGu TTB (SEQ ID NO: 59), antisense ACUGuuGuuAAuGuucAccUU (SEQ ID NO: 60) (sense GGUGAACAUUAACAACAGUTT; antisense ACUGUUGUUAAUGUUCACCUU; sense: DNA at AGT, 2'-fluoro at CU, [invAb] at 5' end, 3' end, backbone not given here; antisense: sugars from the 5' end rrrmffmffmmfmfffmffmm, backbone not given here)”, in the data set with NGFβ protein, the “Max % Protein Reduction at 3 nM” value came to 77% and it took 0.303 nM to reach half-maximal inhibition (IC50). Besides, in the data set on NGFβ mRNA, the “Primary Screen % KD (10 nM)” value was 71 ± 2%, the IC50 was 71 ± 46 pM, the “Maximum % KD in DRC” value turned out to be 61 ± 2% and the “% KD in CaLu-1 Cells” value was 68%.
In the case of “25422-DC: siNA duplex, NGFβ target site 171; sense B uGuccAuGuuGuucuAcAc TTB (SEQ ID NO: 69), antisense GUGuAGAAcAAcAuGGAcAUU (SEQ ID NO: 70) (sense UGUCCAUGUUGUUCUACACTT; antisense GUGUAGAACAACAUGGACAUU; sense: DNA at AGT, 2'-fluoro at CU, [invAb] at 5' end, 3' end, backbone not given here; antisense: sugars from the 5' end rrrfmmmmfmmfmfmmmfmmm, backbone not given here)”, in the data set with NGFβ protein, the “Max % Protein Reduction at 3 nM” value turned out to be 77% and the IC50 came out at 0.395 nM. Also, in the data set with NGFβ mRNA, the “Primary Screen % KD (10 nM)” value is reported as 72 ± 11%, the IC50 stood at 60 ± 45 pM, the “Maximum % KD in DRC” value amounted to 61 ± 9% and the “% KD in CaLu-1 Cells” value amounted to 72%.
